Experimental data as given in patent US10947188B2, “Small molecule ferroptosis inducers” (THE TRUSTEES OF COLUMBIA UNIVERSITY IN THE CITY OF NEW YORK, priority 2016, dated 2021).

Test system: HT-1080
Assay: Modulatory profiling: Alamar Blue viability, lethal compound cotreated with death modulator (EC50, AUC); for AUC HT.BHA: reference of the scale not given here; for AUC HT.EGTA: reference of the scale not given here
Type: cell-based
Design: AUC, modulator HT.3MA / AUC, modulator HT.ALLN / AUC HT.ATA / AUC HT.ActD / AUC HT.BHA / AUC HT.BHT / AUC HT.BocD / AUC HT.CHX / AUC HT.Co2+ / AUC HT.DPQ / AUC HT.EGTA / AUC HT.Lmim / AUC HT.NAD+ / AUC HT.Nec-1 / AUC HT.SP600125 / AUC HT.TLCK / AUC HT.U0126: unit not given beside the values
Settings: for AUC HT.ATA: HT-1080, modulator ATA; for AUC HT.ActD: HT-1080, modulator ActD; for AUC HT.BHA: HT-1080, modulator BHA; for AUC HT.BHT: HT-1080, modulator BHT; for AUC HT.BocD: HT-1080, modulator BocD; for AUC HT.CHX: HT-1080, modulator CHX; for AUC HT.Co2+: HT-1080, modulator Co2+; for AUC HT.CspA: HT-1080, modulator CspA; for AUC HT.DPQ: HT-1080, modulator DPQ; for AUC HT.EGTA: HT-1080, modulator EGTA; for AUC HT.Gd3+: HT-1080, modulator Gd3+; for AUC HT.LNAME: HT-1080, modulator LNAME; for AUC HT.Lmim: HT-1080, modulator Lmim; for AUC HT.NAD+: HT-1080, modulator NAD+; for AUC HT.NMMA: HT-1080, modulator NMMA; for HT.atoc (AUC) / HT.bCarotene (AUC) / HT.deferox (AUC) / HT.digoxin (AUC) / HT.trolox (AUC) / HT.zVAD (AUC) / EC50: HT-1080; for HT.atoc (AUC): modulator atoc; for HT.bCarotene (AUC): modulator bCarotene; for HT.deferox (AUC): modulator deferox; for HT.digoxin (AUC): modulator digoxin; for HT.trolox (AUC): modulator trolox; for HT.zVAD (AUC): modulator zVAD; for effect of ferroptosis inhibitors (iron chelators and lipophilic antioxidants) on lethality in modulatory profiling: HT-1080 and BJeLR; for EC50: Homo sapiens, HT-1080, 48 h, 48 h
[1] = cotreated with antioxidant Atoc
[2] = cotreated with antioxidant Trolox
[3] = cotreated with iron-chelator Deferoxamine
[4] = cotreated with iron-chelator Lmim

SMILES	AUC HT.ATA	AUC HT.ActD	AUC HT.BHA	AUC HT.BHT	AUC HT.BocD	AUC HT.CHX	AUC HT.Co2+	AUC HT.CspA	AUC HT.DPQ	AUC HT.EGTA	AUC HT.Gd3+	AUC HT.LNAME	AUC HT.Lmim	AUC HT.NAD+	AUC HT.NMMA	HT.atoc (AUC)	HT.bCarotene (AUC)	HT.deferox (AUC)	HT.digoxin (AUC)	HT.trolox (AUC)	also measured
O=C(CCl)N(c1ccccc1)c1c[nH]c2ccccc12 [CIL69]	−0.005358	−0.004265	0.2489	0.2227	−0.03457	0.03395	0.07132	0.009848	−0.006588	0.06032	−0.01446	−0.04538	0.1792	0.03637	−0.04048	0.3456	−0.0167	0.3005	−0.0261	0.2631	HT.zVAD (AUC): −0.0004734; effect of ferroptosis inhibitors (iron chelators and lipophilic antioxidants) on lethality in modulatory profiling: suppression by canonical ferroptosis inhibitors; EC50 (DMSO): 0.551 µM; EC50 (cotreated with MEK inh U0126): 5.75 µM; EC50 [1]: 6.13 µM; EC50 (cotreated with antioxidant BHA): 4.79 µM; EC50 (cotreated with antioxidant BHT): 3.28 µM; EC50 [2]: 4.26 µM; EC50 [3]: 9.29 µM; EC50 [4]: 4.79 µM
N/C(Cc1ccc(Cl)cc1)=N\OC(=O)c1cccc2ccccc12 [CIL70]	−0.004378	−0.02914	0.1062	−0.03541	−0.03004	−0.02631	0.01978	−0.0468	0.02696	0.01851	−0.01357	0.005993	0.2198	0.04321	−0.005818	0.2733	−0.001707	0.2561	−0.1366	0.1205	HT.zVAD (AUC): 0.002272; effect of ferroptosis inhibitors (iron chelators and lipophilic antioxidants) on lethality in modulatory profiling: suppression by canonical ferroptosis inhibitors; EC50 (DMSO): 4.44 µM; EC50 (cotreated with MEK inh U0126): 10.3 µM; EC50 [1]: 32.2 µM; EC50 (cotreated with antioxidant BHA): 13.3 µM; EC50 (cotreated with antioxidant BHT): 6.5 µM; EC50 [2]: 11.1 µM; EC50 [3]: 157 µM; EC50 [4]: 47.8 µM
O=C(CCl)N(c1ccc(Cl)cc1)c1c[nH]c2ccccc12 [CIL75]	−0.01715	0.01892	0.3131	0.2828	−0.01219	0.0402	0.1217	−0.009674	0.01971	−0.007018	−0.02285	−0.01737	0.2499	−0.002594	−0.02794	0.3816	−0.01871	0.4009	−0.037	0.3452	HT.zVAD (AUC): 0.0001191; effect of ferroptosis inhibitors (iron chelators and lipophilic antioxidants) on lethality in modulatory profiling: suppression by canonical ferroptosis inhibitors; EC50 (DMSO): 0.144 µM; EC50 (cotreated with MEK inh U0126): 2.53 µM; EC50 [1]: 2.94 µM; EC50 (cotreated with antioxidant BHA): 2.75 µM; EC50 (cotreated with antioxidant BHT): 1.72 µM; EC50 [2]: 2.56 µM; EC50 [3]: 4.82 µM; EC50 [4]: 2.47 µM
COC(=O)[C@@H]1Cc2c([nH]c3ccccc23)C(C)(C)N1C(=O)CCl [CIL79]	−0.05302	−0.04021	0.3909	0.3644	−0.002385	0.02794	0.2948	−0.03389	0.04764	0.02262	−0.02579	0.01224	0.4052	−0.004292	0.003194	0.4488	0.005675	0.5494	−0.0705	0.4225	HT.zVAD (AUC): 0.003682; effect of ferroptosis inhibitors (iron chelators and lipophilic antioxidants) on lethality in modulatory profiling: suppression by canonical ferroptosis inhibitors; EC50 (DMSO): 0.271 µM; EC50 (cotreated with MEK inh U0126): 14.3 µM; EC50 [1]: 11.7 µM; EC50 (cotreated with antioxidant BHA): 10.1 µM; EC50 (cotreated with antioxidant BHT): 6.3 µM; EC50 [2]: 10.2 µM; EC50 [3]: 32.4 µM; EC50 [4]: 12 µM
CC[C@@]1(O)C(=O)OCc2c1cc1n(c2=O)Cc2cc3ccccc3nc2-1 [Camptothecin]	−0.00483	−0.1287	0.04861	−0.08411	0.03455	0.0562	0.1416	−0.1552	0.008143	0.01652	0.02887	0.01135	0.0722	0.06078	0.01978	0.004008	0.002837	0.1288	0.1442	0.01719	AUC HT.Nec-1 (HT-1080, modulator Nec-1): 0.01102; AUC HT.Pepstatin (HT-1080, modulator Pepstatin): 0.005918; AUC HT.SP600125 (HT-1080, modulator SP600125): 0.02319; AUC HT.TLCK (HT-1080, modulator TLCK): 0.04383; AUC HT.U0126 (HT-1080, modulator U0126): 0.0002717; HT.zVAD (AUC): 0.03249; AUC, modulator HT.3MA (HT-1080 cells, lethal compound cotreated with modulator 3MA, modulatory profile value (AUC)): 0.0192; AUC, modulator HT.ALLN (HT-1080 cells, lethal compound cotreated with modulator ALLN, modulatory profile value (AUC)): 0.03354
